Assay results taken from ChEMBL document CHEMBL1141279, “Benzylphenethylamine alkaloids from Hosta plantaginea with inhibitory activity against tobacco mosaic virus and acetylcholinesterase” (J Nat Prod, 2007).
Active and inactive are the calls of the source. No cut-off for these calls is given here.

Experiments:
Acetylcholinesterase = Acetylcholinesterase (Homo sapiens, UniProt P22303)
Description: Inhibition of AChE by Ellman method

Tobacco mosaic virus [1] = experiment: Antiviral activity against Tobacco mosaic virus U1 after 72 hrs by half leaf method; type: functional, organism-based; details: for IC50: U1, 72 h
Tobacco mosaic virus [2] = experiment: Antiviral activity against Tobacco mosaic virus U1 at 1 ug/mL after 72 hrs by half leaf method; type: functional; details: U1, 72 h

Chain of Acetylcholinesterase (P22303 whole entry): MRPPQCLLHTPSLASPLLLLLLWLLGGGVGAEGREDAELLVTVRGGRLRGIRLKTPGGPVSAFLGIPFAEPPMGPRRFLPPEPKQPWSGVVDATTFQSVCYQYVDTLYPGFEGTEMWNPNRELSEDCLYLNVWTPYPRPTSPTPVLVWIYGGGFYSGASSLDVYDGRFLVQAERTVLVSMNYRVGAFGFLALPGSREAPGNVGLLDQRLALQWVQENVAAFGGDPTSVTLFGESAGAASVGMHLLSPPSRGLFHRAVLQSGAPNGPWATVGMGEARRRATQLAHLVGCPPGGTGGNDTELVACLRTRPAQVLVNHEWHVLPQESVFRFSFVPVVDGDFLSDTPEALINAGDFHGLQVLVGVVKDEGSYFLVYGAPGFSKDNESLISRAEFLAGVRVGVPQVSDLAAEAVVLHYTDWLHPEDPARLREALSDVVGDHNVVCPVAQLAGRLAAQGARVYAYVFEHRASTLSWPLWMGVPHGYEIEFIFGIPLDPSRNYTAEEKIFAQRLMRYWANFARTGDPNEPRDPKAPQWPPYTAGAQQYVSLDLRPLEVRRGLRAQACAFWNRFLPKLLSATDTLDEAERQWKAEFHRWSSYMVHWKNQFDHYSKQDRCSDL

Structure (SMILES) | IC50 (Acetylcholinesterase) [µM] | Activity (Tobacco mosaic virus [1]) | also measured
Oc1ccc2c3c1O[C@H]1C[C@@H](O)C=C[C@@]31CCNC2 [NORSANGUININE] | 1.43 | inactive | –
CC(=O)O[C@H]1[C@H]2c3cc4c(cc3CN3CCC(=C[C@@H]1O)[C@H]23)OCO4 | 0.96 | – | –
COc1cc2c(c(OC)c1OC)C(=O)O[C@@H]1CC=C3CCN(C)[C@H]3[C@H]21 | – | inactive | –
COc1cc2c(cc1OC)[C@]1(OC2=O)[C@H](O)[C@@H](O)C=C2CCN(C)[C@H]21 | 2.32 | inactive | –
NC(=O)c1ncn([C@@H]2O[C@H](CO)[C@@H](O)[C@H]2O)n1 [RIBAVIRIN] | – | – | IC50 (Tobacco mosaic virus [1]): 2990 µM
COc1ccc2c3c(c4cc(OC)c(OC)cc4c2c1)C[C@H]1CCCN1C3 [(-)-ANTOFINE] | – | – | inhibition at 1 µg/mL (Tobacco mosaic virus [2]): 65%
CO[C@@H]1C=C[C@@]23c4cc5c(cc4CN(C[C@@H]2O)[C@H]3C1)OCO5 [(+)-HAEMANTHAMINE] | 452 | – | –
CO[C@@H]1C=C[C@@]23c4cc5c(cc4[C@H](O)N(C[C@@H]2O)[C@H]3C1)OCO5 | – | inactive | –
COc1cc2c(c(OC)c1OC)C(=O)O[C@]21[C@H](O)[C@@H](O)C=C2CCN(C)[C@H]21 | 113 | – | –
COc1cc2c(cc1OC)-c1cccc3c1N(CC3)C2 [ASSOANINE] | 3.87 | – | –
[O-]c1cc2c3c(c1)c1cc4c(cc1c[n+]3CC2)OCO4 [UNGEREMINE] | 3.85 | – | –
O[C@@H]1C=C[C@@]23c4cc5c(cc4CN(C[C@@H]2O)[C@H]3C1)OCO5 | – | inactive | –
O[C@H]1[C@H]2c3cc4c(cc3CN3CCC(=C[C@@H]1O)[C@H]23)OCO4 [LYCORINE] | 155 | inactive | –
O=C1N[C@H]2[C@H](O)[C@H](O)[C@@H](O)C[C@@H]2c2cc3c(cc21)OCO3 | – | – | IC50 (Tobacco mosaic virus [1]): 1.8 µM
